Earlier results in US20030229111A1, “Naltrexone hydrochloride compositions” (priority 2002, published 2003).

Assays:
[1] = in vivo, po

## O=C1CC[C@@]2(O)[C@H]3Cc4ccc(O)c5c4[C@@]2(CCN3CC2CC2)[C@H]1O5 [naltrexone, Naltrexone]
other
  protein binding: approximately 21%
[1]
  time within which rapidly absorbed: ≤ 1 h
